Assays:
WT v-Src = molecular target: T1, WT v-Src (Rous sarcoma virus subgroup A, UniProt P00524, DEL77-225); assay: biochemical; format: biochemical; set-up: in vitro inhibition of WT v-Src: dose or concentration left out as unconfirmed
T1 construct: mutant of the v-Src catalytic domain, (the XD4 fragment) were made as glutathione S-transferase (GST) fusion proteins; made in house; host or cells: E. coli (DH5a), pGEX-KT

WT Fyn = molecular target: T2, WT Fyn (Homo sapiens, UniProt P06241); assay: In Vitro Kinase Inhibition Assay; format: biochemical; set-up: in vitro inhibition of Fyn: dose or concentration left out as unconfirmed; details: for IC50: Table 3, wild type
T2 construct: GST (N); made in house; host or cells: E. coli DH5a, pGEX-KT
T2 sequence (P06241 1-534 isoform P06241-2): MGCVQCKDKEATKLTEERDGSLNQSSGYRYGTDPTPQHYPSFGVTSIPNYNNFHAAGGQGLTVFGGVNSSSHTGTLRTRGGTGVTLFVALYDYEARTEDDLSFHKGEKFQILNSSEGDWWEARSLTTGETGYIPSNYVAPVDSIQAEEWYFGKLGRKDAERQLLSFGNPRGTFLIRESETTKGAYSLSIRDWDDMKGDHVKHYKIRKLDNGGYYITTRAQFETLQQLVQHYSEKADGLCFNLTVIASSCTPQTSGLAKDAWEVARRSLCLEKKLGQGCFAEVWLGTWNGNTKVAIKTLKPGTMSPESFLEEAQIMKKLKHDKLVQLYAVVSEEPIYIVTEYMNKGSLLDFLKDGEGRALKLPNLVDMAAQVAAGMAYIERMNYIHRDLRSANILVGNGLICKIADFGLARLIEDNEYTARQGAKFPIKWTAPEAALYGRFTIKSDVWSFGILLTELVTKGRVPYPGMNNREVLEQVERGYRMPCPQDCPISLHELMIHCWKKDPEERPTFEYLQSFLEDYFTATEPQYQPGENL

[1] = system: B cell receptor (BCR) mediated phosphorylation cascade in murine B cells; assay: Murine B Cell Assay (phosphotyrosine blot after anti-IgM stimulation); format: cell-based; set-up: dose or concentration left out as unconfirmed; details: 30 minutes, anti-IgM cross linked murine B cells
Method: Murine B Cell Assay: Splenic lymphocytes were isolated from 6-20 week old Balb/c or C57/B6 mice. The cells were washed out of the spleen into RPMI media containing 1 mg/mL DNase in and the red blood cells were lysed in 17 mM tris-ammonium chloride, pH 7.2, Approximately 4×10^6 cells were incubated at 37° C. for 30 minutes with […] of 3 g or 2 in 1.1% DMSO. B cell stimulation was initiated by the addition of 2 mg of goat anti-mouse IgM (Jackson Immuno Research, cat# 115-005-075) and subsequent incubation for 5 minutes at 37(C. The cells were isolated by centrifugation (13,000 rpm, 2 min) and lysed (lysis buffer: 1% Triton X-100, 50 mM tris pH 7.4, 2 mM EDTA, 150 mM NaCl, […] PMSF, 2 mM sodium orthovanadate, 10 mg/mL leupeptin, 10 mg/mL apoprotin). The cellular debris was then pelleted at 13,000 rpm for 15 min. Cellular proteins were separated by 10% polyacrylamide gel electrophoresis and transferred to a nitrocellulose membrane by Western blotting. Phosphotyrosine containing proteins were visualized by immunoblotting with anti-phosphotyrosine antibody (Upstate Biotechnology, Inc.).

[2] = system: protein tyrosine kinase in murine lymphocyte cell lysate (CF); assay: Screening of ATP analogs as kinase substrates in murine lymphocyte lysate (anti-phosphotyrosine immunoblot); format: biochemical; details: 100 uM nucleotide triphosphate, 37° C., 5 min
Method: Screening of Nucleotide Analogs: To identify compounds that would not be accepted as substrates by any existing cellular kinase (53), a panel of synthetic A*TP analogs were screened in a murine lymphocyte lysate (CF) rich in protein tyrosine kinase (13). The assays were performed using spleenocytes (8-30 week old male and female C57/B6 mice from the Princeton University Animal Facility) which were isolated and washed in RPMI-1640 medium containing 5% Bovine Calf Serum (BCS), 1% Hepes and DNAseI (1 μg/ml). Red cells were lysed at 4° C. by treatment with 17 mM tris ammonium chloride pH 7.2. The cells were hypotonically lysed on ice for 10 min. In 1 mM Hepes pH 7.4, 5 mM MgCl2, leupeptin (10 μg/ml), aprotinin (10 μg/ml) and 100 uM PMSF according to the method of Fukazawa et. al. (51). After vortexing and centrifuigation at 500 xg, the supernatant was collected. Cells were stored at 4° C. for 20 min. To attenuate the basal protein phosphorylation level, after which the buffer was adjusted to 20 mM Hepes pH 7.4, 10 mM MgCl2 and 1 mM NaF. Sodium vanadate (100 uM) was then added to inhibit the activity of phosphotyrosine phosphatases.
Each nucleotide triphosphate was added to a final concentration of 100 uM to 5×10^6 cell equivalents and incubated at 37° C. for 5 min. after which 4X Laemmli gel loading buffer was added to the cell lysate to quench the reaction. Proteins were separated by 12.5% SDS-PAGE and transferred to Protran BA85 (Schleicher-Schuell). The blot was probed with the anti-phosphotyrosine monoclonal antibody 4G10 (Upstate Biotechnology) and the bound antibody was detected via enhanced chemiluminescence (cat. 34080, Pierce) following treatment with HRP- coupled goat-anti-mouse antibody (VWR cat. 7101332) according to the manufacturer's instructions.
The cell lysate used includes the protein tyrosine kinase Src, Fyn, Lck, Lyn, Yes, Fgr, Hck, Zap, Syk, Btk, Blk, and other protein tyrosine kinase present in B and T lymphocytes, macrophages, and follicular dendritic cells (13). Molecular size standards (in kilodaltons) are indicated.

GST-XD4(V323A, I338A) = details: 100 μM analog, 10 μM [γ-32P] ATP
I338G v-Src = molecular target: T3, I338G v-Src (Rous sarcoma virus subgroup A, UniProt P00524, DEL77-225/I338G); assay: biochemical; format: biochemical
T3 construct: screened against the catalytic domain of the target kinase, I338G v-Src; made in house; host or cells: E. coli DH5a, pGEX-KT

## OCC1OC(n2cnc3c(NOC4CCCC4)ncnc32)C(O)C1O (stereo not drawn) [1 (FIG. 14A), N-6 cyclopentyloxyadenosine]
WT v-Src
  in vitro inhibition of WT v-Src: no detectable in vitro inhibition
WT Fyn
  in vitro inhibition of Fyn: no detectable in vitro inhibition

## CC(C)(C)n1nc(-c2ccccc2)c2c(N)ncnc21 [2 (FIG. 14), 4-Amino-1-tert-butyl-3-phenylpyrazolo[3,4-d] pyrimidine, reference compound]
[1]
  phosphotyrosine pattern of B cell stimulation: significant reduction in tyrosine phosphorylation
WT Fyn
  inhibition of WT Fyn (in words): highly potent (low nM)

## CONc1ncnc2c1ncn2[C@@H]1O[C@H](COP(=O)(O)OP(=O)(O)OP(=O)(O)O)[C@@H](O)[C@H]1O [ATP analog 1, N^6(methoxy)ATP]
[2]
  ability to serve as cellular protein tyrosine kinase substrate (level of protein tyrosine phosphorylation): some ability to serve as cellular protein tyrosine kinase substrates

## CCONc1ncnc2c1ncn2[C@@H]1O[C@H](COP(=O)(O)OP(=O)(O)OP(=O)(O)O)[C@@H](O)[C@H]1O [ATP analog 2, N^6(ethoxy)ATP]
[2]
  ability to serve as cellular protein tyrosine kinase substrate (level of protein tyrosine phosphorylation): some ability to serve as cellular protein tyrosine kinase substrates

## CC(=O)Nc1ncnc2c1ncn2[C@@H]1O[C@H](COP(=O)(O)OP(=O)(O)OP(=O)(O)O)[C@@H](O)[C@H]1O [ATP analog 3, N^6(acetyl)ATP]
[2]
  ability to serve as cellular protein tyrosine kinase substrate (level of protein tyrosine phosphorylation): some ability to serve as cellular protein tyrosine kinase substrates

## CC(C)ONc1ncnc2c1ncn2[C@@H]1O[C@H](COP(=O)(O)OP(=O)(O)OP(=O)(O)O)[C@@H](O)[C@H]1O [ATP analog 4, N^6(i-propoxy)ATP]
[2]
  ability to serve as cellular protein tyrosine kinase substrate (level of protein tyrosine phosphorylation): little or no protein phosphorylation

## O=P(O)(O)OP(=O)(O)OP(=O)(O)OC[C@H]1O[C@@H](n2cnc3c(NCc4ccccc4)ncnc32)[C@H](O)[C@@H]1O [ATP analog 5, N^6-(benzyl)ATP]
[2]
  ability to serve as cellular protein tyrosine kinase substrate (level of protein tyrosine phosphorylation): little or no protein phosphorylation
GST-XD4(V323A, I338A)
  inhibition of GST-XD4(V323A, I338A) catalyzed RR-Src phosphorylation: almost as well as the wild-type kinase, GST-XD4, is inhibited by its natural substrate ATP

## O=P(O)(O)OP(=O)(O)OP(=O)(O)OC[C@H]1O[C@@H](n2cnc3c(NOCc4ccccc4)ncnc32)[C@H](O)[C@@H]1O [ATP analog 6, N^6-(benxyloxy)ATP]
[2]
  ability to serve as cellular protein tyrosine kinase substrate (level of protein tyrosine phosphorylation): little or no protein phosphorylation

## O=P(O)(O)OP(=O)(O)OP(=O)(O)OC[C@H]1O[C@@H](n2cnc3c(NOC4CCCC4)ncnc32)[C@H](O)[C@@H]1O [ATP analog 9, N^6(cyclopentyloxy)ATP]
GST-XD4(V323A, I338A)
  inhibition of GST-XD4(V323A, I338A) catalyzed RR-Src phosphorylation: almost as well as the wild-type kinase, GST-XD4, is inhibited by its natural substrate ATP

## O=P(O)(O)OP(=O)(O)OP(=O)(O)OC[C@H]1O[C@@H](n2cnc3c(NC4CCCCC4)ncnc32)[C@H](O)[C@@H]1O [ATP analog 11, N^6-(cyclohexyl)ATP]
GST-XD4(V323A, I338A)
  inhibition of GST-XD4(V323A, I338A) catalyzed RR-Src phosphorylation: almost as well as the wild-type kinase, GST-XD4, is inhibited by its natural substrate ATP

## CC(C)(C)n1nc(-c2ccccc2)c2c(NCC3CCCC3)ncnc21 [Compound 4b, 4-cyclopentylmethylamino-1-tert-butyl-3-phenylpyrazolo[3,4-d]pyrimidine]
I338G v-Src
  inhibition of I338G v-Src (in words): only poor to moderate inhibition
WT Fyn
  inhibition of WT Fyn (in words): sufficiently orthogonal to WT Fyn

## CC(C)(C)n1nc(-c2ccccc2)c2c(NCc3ccco3)ncnc21 [Compound 4d, 4-2′-furylmethylamino-1-tert-butyl-3-phenylpyrazolo[3,4-d]pyrimidine]
I338G v-Src
  inhibition of I338G v-Src (in words): only poor to moderate inhibition
WT Fyn
  inhibition of WT Fyn (in words): sufficiently orthogonal to WT Fyn

## CC(C)(C)n1nc(-c2ccccc2)c2c(NCc3ccccc3)ncnc21 [Compound 4e, 4-benzylamino-1-tert-butyl-3-phenylpyrazolo[3,4-d]pyrimidine]
I338G v-Src
  inhibition of I338G v-Src (in words): only poor to moderate inhibition
WT Fyn
  inhibition of WT Fyn (in words): sufficiently orthogonal to WT Fyn

## CC(C)(C)n1nc(-c2ccc3ccccc3c2)c2c(N)ncnc21 [Compound 6b, 4-amino-1-(tert-butyl)-3-(2′-naphthyl)pyrazolo[3,4-d]pyrimidine]
WT Fyn
  IC50: 0.13 µM

## CC(C)(C)n1nc(-c2cccc(Oc3ccccc3)c2)c2c(N)ncnc21 [Compound 6c, 4-amino-1-(tert-butyl)-3-(m-phenoxyphenyl)pyrazolo[3,4-d]pyrimidine]
WT v-Src
  IC50: 40 µM
I338G v-Src
  IC50: 0.14 µM
WT Fyn
  IC50: 0.8 µM

## CC(C)(C)n1nc(-c2cccc(OCc3ccccc3)c2)c2c(N)ncnc21 [Compound 6d, 4-amino-1-(tert-butyl)-3-(m-benzyloxyphenyl)pyrazolo[3,4-d]pyrimidine]
WT v-Src
  IC50: 26 µM
I338G v-Src
  IC50: 0.007 µM
  inhibition of I338G v-Src (in words): low nM concentrations
WT Fyn
  IC50: 6 µM

## CC(C)(C)n1nc(-c2cccc(OCc3c(Cl)cccc3Cl)c2)c2c(N)ncnc21 [Compound 6e, 4-amino-1-(tert-butyl)-3-(m-(2′,6′-dichloro)benzyloxyphenyl) pyrazolo[3,4-d]pyrimidine]
I338G v-Src
  IC50: 0.13 µM
WT Fyn
  IC50: 84 µM

## CC(C)(C)c1ccc(-c2nn(C(C)(C)C)c3ncnc(N)c23)cc1 [Compound 6g, 4-amino-1-(tert-butyl)-3-(p-tert-butylphenyl)pyrazolo[3,4 d]pyrimidine]
WT v-Src
  IC50: 65 µM
I338G v-Src
  IC50: 0.099 µM
WT Fyn
  IC50: 9.2 µM

## CC(C)(C)n1nc(Cc2ccc3ccccc3c2)c2c(N)ncnc21 [Compound 6j, 4-amino-1-(tert-butyl)-3-(2′-naphthylmethyl)pyrazolo[3,4-d]pyrimidine]
WT v-Src
  IC50: > 300 µM
I338G v-Src
  IC50: 0.02 µM
  inhibition of I338G v-Src (in words): medium potency

## Cc1ccc(-c2nn(C(C)(C)C)c3ncnc(N)c23)cc1 [PP1, 4-amino-1-tert-butyl-3-(p-methylphenyl)pyrazolo[3,4-d]pyrimidine, reference compound]
WT Fyn
  inhibition of WT Fyn (in words): highly potent (low nM)
